This is an account of results in publication PMC6009872, “Carbonic anhydrases from Trypanosoma cruzi and Leishmania donovani chagasi are inhibited by benzoxaboroles” (Journal of Enzyme Inhibition and Medicinal Chemistry, 2017).

What is called Ki is the dissociation constant of the complex between target and ligand, obtained from inhibition or displacement. Low readings indicate tighter binding, high ones weaker binding.

Assay [1] has as its target T1, TcCA (Trypanosoma cruzi, UniProt Q4CVY4).
T1 construct: gene Tc00.1047053509597.20
T1 sequence (Q4CVY4 39-638): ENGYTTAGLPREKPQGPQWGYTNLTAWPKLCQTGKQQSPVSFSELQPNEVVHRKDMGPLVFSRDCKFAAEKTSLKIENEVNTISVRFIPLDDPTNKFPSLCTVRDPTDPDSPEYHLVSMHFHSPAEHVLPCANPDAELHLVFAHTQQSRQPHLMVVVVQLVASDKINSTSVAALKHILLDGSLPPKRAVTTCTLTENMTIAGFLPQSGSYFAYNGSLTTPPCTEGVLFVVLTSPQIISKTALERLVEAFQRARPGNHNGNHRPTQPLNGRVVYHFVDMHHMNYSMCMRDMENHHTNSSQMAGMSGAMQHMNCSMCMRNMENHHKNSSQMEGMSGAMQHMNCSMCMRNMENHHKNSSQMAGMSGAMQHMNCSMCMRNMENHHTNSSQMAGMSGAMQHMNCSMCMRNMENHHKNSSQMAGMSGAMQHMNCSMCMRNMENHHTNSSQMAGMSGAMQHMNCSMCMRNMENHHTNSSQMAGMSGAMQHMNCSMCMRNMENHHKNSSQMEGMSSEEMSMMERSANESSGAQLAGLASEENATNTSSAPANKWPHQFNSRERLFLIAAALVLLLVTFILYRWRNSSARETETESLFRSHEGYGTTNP
Briefly: stopped-flow CO2 hydrase assay. It is filed as biochemical. Particulars: 20 mM Hepes pH 7.5, 20 mM Na2SO4, CO2 1.7-17 mM, 15 min preincubation at room temperature.

In assay [2] the target is T2, LdcCA (Leishmania infantum, UniProt A4HSV2).
T2 construct: gene LINJ_06_0630; organism given as Leishmania donovani chagasi
T2 sequence (A4HSV2 1-306): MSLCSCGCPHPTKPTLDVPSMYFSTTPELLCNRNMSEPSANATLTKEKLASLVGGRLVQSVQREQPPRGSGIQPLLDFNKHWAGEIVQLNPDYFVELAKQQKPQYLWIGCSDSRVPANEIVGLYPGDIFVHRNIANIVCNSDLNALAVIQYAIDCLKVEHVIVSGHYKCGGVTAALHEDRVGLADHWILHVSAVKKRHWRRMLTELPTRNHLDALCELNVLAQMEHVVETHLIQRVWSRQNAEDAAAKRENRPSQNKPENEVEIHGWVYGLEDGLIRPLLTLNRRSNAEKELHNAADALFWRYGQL
Briefly: stopped-flow CO2 hydrase assay. Particulars: 20 mM TRIS pH 8.3, 20 mM Na2SO4, CO2 1.7-17 mM, 15 min preincubation at room temperature. The format is biochemical.

Turning to `OB1OCc2ccc(NC(=S)NCc3ccccc3)cc21` [compound 19, 19], the Ki came to 59.6 µM in assay [1] and 4.37 µM in assay [2].

Consider `OB1OCc2ccc(NC(=S)Nc3ccc(F)cc3)cc21` [compound 20, 20], for which the Ki amounted to 19.7 µM in assay [1] and 0.66 µM in assay [2].

Consider `O=C(Nc1ccc2c(c1)B(O)OC2)Nc1c(Cl)cc(Cl)cc1Cl` [compound 11, 11], for which the Ki in assay [1] came out at 69.5 µM; in assay [2] it was 3.85 µM.

Turning to `O=C(NCc1ccccc1)Nc1ccc2c(c1)B(O)OC2` [compound 4, 4], the values for the Ki in assay [1] and in assay [2] were 75.1 µM and 2.04 µM, respectively.

Turning to `O=[N+]([O-])c1ccc2c(c1)B(O)OC2` [compound 2, 6-nitro benzoxaborole 2], the Ki is more than 100 µM in assay [1] and 4.01 µM in assay [2].

Regarding `O=[N+]([O-])c1ccc(NC(=S)Nc2ccc3c(c2)B(O)OC3)cc1` [compound 18, 18], the Ki in assay [1] is 46.8 µM; in assay [2] it was 0.91 µM.

With `OB1OCc2ccc(NC(=S)Nc3ccccc3)cc21` [compound 23, phenylthioureido benzoxaborole 23], the results for the Ki in assay [1] and in assay [2] were 23.4 µM and 0.65 µM, respectively.

On to `O=C(Nc1ccccc1)Nc1ccc2c(c1)B(O)OC2` [compound 6, phenylureido benzoxaborole 6], for which the values for the inhibition constant (Ki) in assay [1] and in assay [2] were 32.3 µM and 0.74 µM, respectively.

Turning to `OB1OCc2ccc(NC(=S)NCc3ccco3)cc21` [compound 21, 21], the Ki came out at 42.1 µM in assay [1] and 4.36 µM in assay [2].

Consider `OB1OCc2ccc(NC(=S)Nc3ccc4ccccc4c3)cc21` [compound 16, 16], for which the Ki in assay [1] was determined as 58.8 µM; in assay [2] it was 3.06 µM.

Regarding `OB1OCc2ccccc21` [compound 1, benzoxaborole 1], the Ki in assay [1] is more than 100 µM; in assay [2] it was 3.79 µM.

For `OB1OCc2ccc(NC(=S)NCCc3ccccc3)cc21` [compound 14, 14], the Ki in assay [1] worked out at 72.8 µM; in assay [2], 3.2 µM.

Regarding `O=C(Nc1ccc(F)cc1)Nc1ccc2c(c1)B(O)OC2` [compound 9, 9], the Ki stood at 24 µM in assay [1] and 0.78 µM in assay [2].

As to `OB1OCc2cc(F)ccc21` [Tavaborole, reference compound], the Ki turned out to be 60.5 µM in assay [1] and 2.54 µM in assay [2].

As to `Cc1cc(Cl)cc(CNC(=O)Nc2ccc3c(c2)B(O)OC3)c1` [compound 5, 5], the Ki in assay [1] worked out at 87.6 µM; in assay [2], 4.3 µM.

With `OB1OCc2ccc(NC(=S)Nc3ccc(C(F)(F)F)cc3)cc21` [compound 22, 22], the inhibition constant Ki in assay [1] is 16.6 µM; in assay [2], 0.85 µM.

On to `O=C(Nc1ccc(Cl)cc1)Nc1ccc2c(c1)B(O)OC2` [compound 7, 7], for which the inhibitory constant (Ki) in assay [1] worked out at 37.8 µM; in assay [2], 0.62 µM.

For `O=C(NCc1ccco1)Nc1ccc2c(c1)B(O)OC2` [compound 8, 8], the values for the Ki in assay [1] and in assay [2] were 67.6 µM and 3.54 µM, respectively.

Consider `Cc1ccc(NC(=S)Nc2ccc3c(c2)B(O)OC3)cc1` [compound 15, 15], for which the inhibition constant Ki in assay [1] came out at 32.5 µM; in assay [2] it was 0.67 µM.

Turning to `CC(=O)c1ccc(NC(=O)Nc2ccc3c(c2)B(O)OC3)cc1` [compound 13, 13], the results for the inhibition constant (Ki) in assay [1] and in assay [2] were 33.6 µM and 0.48 µM, respectively.

Turning to `COc1ccc(NC(=S)Nc2ccc3c(c2)B(O)OC3)cc1` [compound 17, 17], the Ki was found to be 12.6 µM in assay [1] and 0.59 µM in assay [2].

As for `O=C(Nc1ccc(C(F)(F)F)cc1)Nc1ccc2c(c1)B(O)OC2` [compound 10, 10], the Ki was 60.7 µM in assay [1] and 2.59 µM in assay [2].

`Nc1ccc2c(c1)B(O)OC2` [compound 3, 6-amino benzoxaborole 3]: the inhibition constant Ki in assay [1] was more than 100 µM; in assay [2], 2.37 µM.

For the molecule `COc1ccc(C)cc1NC(=O)Nc1ccc2c(c1)B(O)OC2` [compound 12, 12], the Ki in assay [1] worked out at 38.6 µM; in assay [2], 0.67 µM.
